Assays:
HAT = biological target: T1, HAT (Homo sapiens, UniProt O60235); assay: Enzyme kinetic determination of inhibition of HAT (Ki, Dixon method, fluorogenic substrate d-Cyclohexylalanin-Pro-Arg-7-Aminomethylcoumarin); type: biochemical; details: HAT (R&D Systems), Tris pH 9.5, room temperature
T1 construct: purchased R&D Systems
T1 sequence (O60235 1-418): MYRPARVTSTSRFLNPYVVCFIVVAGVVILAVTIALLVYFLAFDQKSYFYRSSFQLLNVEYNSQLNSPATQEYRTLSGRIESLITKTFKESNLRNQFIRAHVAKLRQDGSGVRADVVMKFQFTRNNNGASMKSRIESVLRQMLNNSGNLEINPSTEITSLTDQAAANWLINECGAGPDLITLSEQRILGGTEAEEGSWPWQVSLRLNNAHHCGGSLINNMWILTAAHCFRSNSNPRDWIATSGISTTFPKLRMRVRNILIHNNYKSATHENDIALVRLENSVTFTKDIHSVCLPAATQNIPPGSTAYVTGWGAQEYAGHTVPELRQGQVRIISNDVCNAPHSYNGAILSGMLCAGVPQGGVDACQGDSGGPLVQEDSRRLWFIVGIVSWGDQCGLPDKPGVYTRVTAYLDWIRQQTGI
Excerpt: (§1) Die Hemmwirkung der Inhibitoren für HAT (R&D Systems) und TMPRSS2 (katalytische Domäne exprimiert in E. coli) wurden unter Verwendung chromogener Substrate ermittelt. Für HAT wurde d-Cyclohexylalanin-Pro-Arg-7-Aminomethylcoumarin und für TMPRSS2 d-Cyclohexylalanin-Gly-Arg-p-Nitroanilin als Substrat verwendet. Die Bestimmung wurde mit einem Fluoreszenz-Plattenreader Safire^2 der Firma Tecan (λEx = 380 nm, λEm = 460 nm) für HAT und mit einem UV/Vis Plattenreader iEMS Reader MF 1401 der Firma LABSYSTEMS für TMPRSS2 bei 405 nm durchgeführt. Die Messung erfolgte in Tris-Puffer (50 mM Tris pH 9.5, 0,05% Brij 58 und 1 mg/ml bovines serum Albumin für HAT und 50 mM Tris pH 8.0, 0,154 M NaCl für TMPRSS2) auf Mikrotiter Platten bei Raumtemperatur. Die Inhibitorlösungen geeigneter Konzentration wurden in DMSO hergestellt. Im Messansatz wurden zu 2 µl Inhibitorlösung unterschiedlicher Konzentration jeweils 158 µl Puffer und 20 µl Substratlösung geben, und danach die Reaktion durch Zugabe von 20 µl Enzymlösung gestartet. Jeder Inhibitor wurde mit drei verschiedenen Substratkonzentrationen vermessen (50 µM, 100 µM, 200 µM für HAT und 45 µM, 90 µM und 181 µM für TMPRSS2). Die Inhibitorkonzentration wurde mindestens um den Bereich einer Größenordnung variiert und jeweils die steady-state Geschwindigkeit bestimmt. Die Berechnung der Ki-Werte erfolgte mit Hilfe eines Computerprogramms nach der Methode von Dixon.

TMPRSS2 = biological target: T2, TMPRSS2 (Homo sapiens, UniProt O15393); assay: Enzyme kinetic determination of inhibition of TMPRSS2 (Ki, Dixon method, chromogenic substrate d-Cyclohexylalanin-Gly-Arg-p-Nitroanilin); type: biochemical; details: TMPRSS2 catalytic domain expressed in E. coli, Tris pH 8.0, room temperature
T2 construct: TMPRSS2 (katalytische Domäne exprimiert in E. coli); made in house; host or cells: E. coli
Excerpt: as §1

HAT-Flag = biological target: T3, HAT-Flag (Homo sapiens, UniProt O60235); assay: Inhibition of affinity-purified HAT-Flag: cleavage of the substrate Boc-Leu-Gly-Arg-AMC; type: biochemical; details: 25 µM Boc-Leu-Gly-Arg-AMC, 2 h, 37° C, pH 7,4
T3 construct: made in house; host or cells: MDCK-HAT cells (MDCK stably transfected with pcEFTet-On/NEO and pTRE2pur-HAT-FLAG, doxycycline-inducible); isolated with the FLAG Tagged Protein Immunoprecipitation Kit
T3 sequence (O60235 1-418): T1 sequence (O60235 1-418)
Excerpt: Die in MDCK-HAT-Zellen exprimierte Protease HAT besitzt zusätzlich ein C-terminales Flag-Epitop, welches die Affinitätsreinigung der Protease mit Hilfe von anti-FlagM2-Agarose (Sigma-Aldrich) ermöglicht. HAT-Flag liegt nach der Immunpräzipitation als aktive Protease vor. Die enzymatische Aktivität kann mit Hilfe des Fluoreszenzsubstrats Boc-Leu-Gly-Arg-AMC bestimmt werden.
Für Inhibitionsstudien wurde HAT-Flag zunächst mit Hilfe des FLAG®Tagged Protein Immunoprecipitation Kits aus MDCK-HAT-Zellen isoliert. Anschließend wurde die isolierte Protease mit 25 µM Boc-Leu-Gly-Arg-AMC in 50 mM Tris/HCl pH 7,4 in An- oder Abwesenheit der Inhibitoren (Endkonzentrationen 0,1 -10 µM) für 2 h bei 37° C inkubiert. Die Umsetzung des Substrates wurde mit Hilfe eines Fluoreszenz-Spektralphotomers bei 350 nm (Extinktion) sowie 460 nm (Emission) bestimmt. Als Kontrolle diente die Bestimmung der Proteaseaktivität in Abwesenheit eines Inhibitors (entspricht 0% Hemmung). Tabelle 2: Hemmwirkung synthetischer Serinproteasehemmstoffe auf die HAT-katalysierte Spaltung des Substrats Boc-Leu-Gly-Arg-AMC.

[1] = system: Influenzavirus-Isolat A/Memphis/14/96 (H1N1); type: cell-based; details: Calu-3-Zellen (endogenous TMPRSS2), 24 h infection

T2 sequence (O15393 256-492 limits assumed): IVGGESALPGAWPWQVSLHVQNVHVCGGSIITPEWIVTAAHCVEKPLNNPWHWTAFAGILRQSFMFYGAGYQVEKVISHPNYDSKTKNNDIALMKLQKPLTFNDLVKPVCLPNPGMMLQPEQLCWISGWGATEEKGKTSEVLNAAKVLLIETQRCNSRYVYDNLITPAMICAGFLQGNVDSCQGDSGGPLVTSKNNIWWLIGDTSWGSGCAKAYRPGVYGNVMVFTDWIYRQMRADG

SMILES | Ki (HAT) [nM] | also measured
[H]/N=C(\N)c1ccc(CNC(=O)[C@@H]2CCCN2C(=O)[C@@H](Cc2ccccc2)NS(=O)(=O)Cc2ccccc2)cc1 [Inhibitor 6] | 66 | –
N=C(N)c1ccc(CNC(=O)[C@H](CCCCNC(=O)OCc2ccccc2)NC(=O)[C@@H](CC2CCCCC2)NS(=O)(=O)Cc2ccccc2)cc1 [Inhibitor 17] | 488 | Ki (TMPRSS2): 84 nM
N=C(N)c1ccc(CNC(=O)CNC(=O)[C@@H](CCCN=C(N)N)NS(=O)(=O)Cc2ccccc2)cc1 [Inhibitor 2] | 279 | –
N=C(N)NCCCC[C@@H](NS(=O)(=O)Cc1ccccc1)C(=O)N1CCC[C@H]1C(=O)NCc1ccc(C(=N)N)cc1 [Inhibitor 10] | 13 | –
N=C(N)c1ccc(CNC(=O)[C@@H]2CCCN2C(=O)[C@@H](CC2CCCCC2)NS(=O)(=O)Cc2ccccc2)cc1 [Inhibitor 5] | 77 | Prozent Hemmung (%) (HAT-Flag; Inhibitorkonzentration 0,1 µM): 27%; Prozent Hemmung (%) (HAT-Flag; Inhibitorkonzentration 1 µM): 47,4%; Prozent Hemmung (%) (HAT-Flag; Inhibitorkonzentration 10 µM): 51,5%; Ki (TMPRSS2): 81 nM
N=C(N)c1ccc(CNC(=O)[C@@H]2CCCN2C(=O)[C@@H](CCCCNC(=O)OCc2ccccc2)NS(=O)(=O)Cc2ccccc2)cc1 [Inhibitor 8] | 49 | –
N=C(N)c1ccc(CNC(=O)[C@H](CO)NC(=O)[C@@H](CO)NS(=O)(=O)Cc2ccccc2)cc1 [Inhibitor 3] | 78 | Prozent Hemmung (%) (HAT-Flag; Inhibitorkonzentration 0,1 µM): 29,5%; Prozent Hemmung (%) (HAT-Flag; Inhibitorkonzentration 1 µM): 47,1%; Prozent Hemmung (%) (HAT-Flag; Inhibitorkonzentration 10 µM): 80,3%; Reduktion der Virusausbreitung [1]: konzentrationsabhängige Reduktion der Virusausbreitung
CCCCCCCCCC(=O)NCCCC[C@H](NC(=O)[C@@H](CC1CCCCC1)NS(=O)(=O)Cc1ccccc1)C(=O)NCc1ccc(C(=N)N)cc1 [Inhibitor 16] | > 20000 | –
CCCCCCCCCC(=O)NCCCC[C@H](NC(=O)[C@@H](CCCNC(=N)N)NS(=O)(=O)Cc1ccccc1)C(=O)NCc1ccc(C(=N)N)cc1 [Inhibitor 14] | 160 | Ki (TMPRSS2): 8 nM
N=C(N)c1ccc(CNC(=O)[C@@H]2CCCN2C(=O)C(CCc2ccccn2)NS(=O)(=O)Cc2ccccc2)cc1 (stereo partly shown) [Inhibitor 11] | 32 | –
N=C(N)c1ccc(CNC(=O)[C@@H]2CCCN2C(=O)[C@@H](CCc2ccccc2)NS(=O)(=O)Cc2ccccc2)cc1 [Inhibitor 7] | 55 | –
N=C(N)c1ccc(CNC(=O)[C@H](CCCCNC(=O)OCc2ccccc2)NC(=O)[C@@H](CO)NS(=O)(=O)Cc2ccccc2)cc1 [Inhibitor 4] | 48 | –
N=C(N)c1ccc(CNC(=O)CNC(=O)[C@@H](CO)NS(=O)(=O)Cc2ccccc2)cc1 [Inhibitor 15] | 1840 | –
N=C(N)c1ccc(CNC(=O)[C@@H]2CCCN2C(=O)[C@@H](CCCCN)NS(=O)(=O)Cc2ccccc2)cc1 [Inhibitor 9] | 30 | –
N=C(N)NCCC[C@@H](NS(=O)(=O)Cc1ccccc1)C(=O)N1CCC[C@H]1C(=O)NCc1ccc(C(=N)N)cc1 [Inhibitor 1] | 19 | Prozent Hemmung (%) (HAT-Flag; Inhibitorkonzentration 0,1 µM): 22,3%; Prozent Hemmung (%) (HAT-Flag; Inhibitorkonzentration 1 µM): 70,7%; Prozent Hemmung (%) (HAT-Flag; Inhibitorkonzentration 10 µM): 93,1%; Ki (TMPRSS2): 3 nM; Reduktion der Virusausbreitung [1]: konzentrationsabhängige Reduktion der Virusausbreitung
N#Cc1ccc(C[C@@H](NS(=O)(=O)Cc2ccccc2)C(=O)N2CCC[C@H]2C(=O)NCc2ccc(C(=N)N)cc2)cc1 [Inhibitor 12] | 210 | –

— patent publication EP2435064B1, “USE OF HAT INHIBITORS AND TMPRSS2 INHIBITORS AS MEDICAMENTS” (Philipps-Universität Marburg, priority 2009, dated 2010)
